This is an account of results in publication PMC12527934 (Nature, 2025).

*1 amine or outer side, *2 acyl side, *3 side chain or, on linkers, in order; H or OH if unused. Where a SMILES comes first, the peptide text is derived from it. Bridges are numbered along the chain shown (N, C = ends). [ ]: non-standard residue; d: D form. The star is where a group is joined. X4 = CN([C@@H](Cc1cc(Cl)ccc1-c1cnn(C)c1)C(=O)[*:2])[*:1]; X5 = CN([C@@H](Cc1cc(Cl)nn1-c1ccccc1)C(=O)[*:2])[*:1]; cBuCO(3,3-F2-1-CF3) = O=C(C1(C(F)(F)F)CC(F)(F)C1)*; NMePhe(2,5-Cl2) = CN[C@@H](Cc1cc(Cl)ccc1Cl)C(=O)O; X2 = CCCN([C@@H](Cc1cc(Cl)ccc1Cl)C(=O)[*:2])[*:1]; Nle(6-morpholino) = N[C@@H](CCCCN1CCOCC1)C(=O)O; X6 = CN([C@H](Cc1cc(Cl)ccc1Cl)C(=O)[*:2])[*:1]; Pro(trans-4-F) = O=C(O)[C@@H]1C[C@@H](F)CN1; dPro(trans-4-F) = O=C(O)[C@H]1C[C@H](F)CN1; X3 = O=C([C@@H](c1cccnc1)C1CCCCC1)*; Gly(cPr) = N[C@H](C(=O)O)C1CC1; X1 = C[C@@](O)(C(=O)*)C(F)(F)F; Cba = N[C@@H](CC1CCC1)C(=O)O; NMeK = CN[C@@H](CCCCN)C(=O)O; dCba = N[C@H](CC1CCC1)C(=O)O; dNMeK = CN[C@H](CCCCN)C(=O)O; dNva = CCC[C@@H](N)C(=O)O; Ac3c = NC1(C(=O)O)CC1; Aib = CC(C)(N)C(=O)O

Data set [1] has as its system p-KNL1 in NCI-H1048 cells. Description: Immunoblot of p-KNL1. Type of data set: cell-based, human. (In western blotting, separated proteins are transferred to a membrane and probed.)
Data set [2] deals with NCI-H1048 cells. As to the kind of experiment: Live-cell imaging of mitosis. Type of data set: cell-based, human. The settings on record: NCI-H1048 GFP–H2B, 20 nM.
The next data set concerns RPE1 cells. As to the kind of experiment: Cell-count dose–response assay. The settings on record: RPE1, even at high doses. The format is cell-based, human.
The subject of another data set is 46 human SCLC cell lines. Description: Cell Titer Glo proliferation assay, panel of 46 SCLC cell lines. Type of data set: cell-based. The settings on record: 4–8 days. On the technique in general: Cellular ATP, detected with luciferase, serves as a proxy for viable cell number.
In data set [3] the test system is human peripheral blood CD34+ cells. The format is cell-based. The settings on record: CD34+ haematopoietic stem and progenitor cells, even at high doses.
Data set [4] deals with NCI-H1048 cells. Description: Cell-count dose–response assay. The format is cell-based, human. The settings on record: for activity in proliferation, apoptosis and cell cycle assays: NCI-H1048.
In another data set the test system is NCI-H69 xenografts. As to the kind of experiment: NCI-H69 cell line xenograft efficacy study. Type of data set: in vivo, mouse. The settings on record: 100 mg per kg daily i.v. 14 days.
Data set [5] can be described thus: Body weight, NCI-H1048 xenograft study. The format is in vivo, mouse. The settings on record: 100 mg per kg daily 14 days.
Data set [6] in a line: Body weight, NCI-H69 xenograft study. The format is in vivo, mouse. The settings on record: 100 mg per kg daily 14 days.
The test system of the next data set is NCI-H1048 xenografts. As to the kind of experiment: NCI-H1048 cell line xenograft efficacy study. Type of data set: in vivo, mouse. The settings on record: 100 mg per kg daily i.v. 14 days.
The next data set deals with NCI-H69 cells. Description: Nocodazole synchronization, propidium iodide FACS. The format is cell-based, human. The settings on record: NCI-H69, 60 ng ml−1, overnight.

With `COc1ccc(Oc2cc(NCCC(F)(F)F)c3ncc(-c4ccc(C(=O)NC5CC5)c(C)c4)n3n2)c(F)c1F` [BAY-1217389], the “KNL1 phosphorylation and proliferation” value in data set [1] (3 nM, NCI-H1048) is recorded as “blocked KNL1 phosphorylation without affecting proliferation”.
In the case of `CC(C)C[C@@H]1NC(=O)[C@@H](N(C)C(=O)[C@H](CC2CCC2)NC(=O)[C@@H]2C[C@@H](F)CN2C(=O)C2(C(F)(F)F)CC(F)(F)C2)CCCCNC(=O)C2(CC2)NC(=O)[C@H](Cc2cc(Cl)ccc2Cl)N(C)C1=O` [CIRc-004] ({cBuCO(3,3-F2-1-CF3)}-[Pro(trans-4-F)][Cba][NMeK]L[NMePhe(2,5-Cl2)][Ac3c]; lactam 3-C), the “anaphase initiation (live-cell imaging)” value in the data set with NCI-H1048 cells [2] is on record as “blocked anaphase initiation”. Also, the “sensitivity of normal cells (mitotic arrest, apoptosis)” value (in the data set on RPE1 cells; in data set [3]) was “insensitive” throughout. Moreover, the “sensitivity of 46 SCLC cell lines in anti-proliferation assays” value in the data set with 46 human SCLC cell lines was “Nearly all lines were highly sensitive”.
With `CC(C)C[C@H]1NC(=O)[C@H](N(C)C(=O)[C@@H](CC2CCC2)NC(=O)[C@H]2C[C@H](F)CN2C(=O)C2(C(F)(F)F)CC(F)(F)C2)CCCCNC(=O)C2(CC2)NC(=O)[C@@H](Cc2cc(Cl)ccc2Cl)N(C)C1=O` [CIRc-005] ({cBuCO(3,3-F2-1-CF3)}-[dPro(trans-4-F)][dCba][dNMeK][dL][X6][Ac3c]; lactam 3-C), in the data set on NCI-H1048 cells [4] (NCI-H1048, 200 nM), the “effect on cellular proliferation” value is “had no effect on cellular proliferation”.
For `CCC[C@H]1NC(=O)[C@H](Cc2cc(Cl)ccc2-c2cnn(C)c2)N(C)C(=O)[C@H](CC(C)C)NC(=O)[C@@H](N(C)C(=O)[C@H](CCCCN2CCOCC2)NC(=O)[C@@H](c2cccnc2)C2CCCCC2)CCCCNC1=O` [CIRc-018] (X3-[Nle(6-morpholino)][NMeK]L[X4][dNva]; lactam 2-C), the “activity in proliferation, apoptosis and cell cycle assays” value with NCI-H1048 cells [4] is on record as “lacked activity”.
The same measure, in the same setting: for `CC(C)C[C@@H]1NC(=O)[C@@H](N(C)C(=O)[C@@H](NC(=O)[C@@H]2C[C@@H](F)CN2C(=O)C2(C(F)(F)F)CC(F)(F)C2)C2CC2)CCCCNC(=O)C(C)(C)NC(=O)[C@H](Cc2cc(Cl)nn2-c2ccccc2)N(C)C1=O` [CIRc-019] ({cBuCO(3,3-F2-1-CF3)}-[Pro(trans-4-F)][Gly(cPr)][NMeK]L[X5][Aib]; lactam 3-C) the value was “lacked activity”.
For the molecule `CCCN1C(=O)[C@H](CC(C)C)NC(=O)[C@@H](N(C)C(=O)[C@H](CC2CCC2)NC(=O)[C@@H]2C[C@@H](F)CN2C(=O)[C@@](C)(O)C(F)(F)F)CCCCNC(=O)C2(CC2)NC(=O)[C@@H]1Cc1cc(Cl)ccc1Cl` [CIRc-028] (X1-[Pro(trans-4-F)][Cba][NMeK]L[X2][Ac3c]; lactam 3-C), the results for the tumour response entry in the data set on NCI-H69 xenografts and in the data set with NCI-H1048 xenografts were “induced tumour regressions” and “substantially inhibited growth”, respectively. Moreover, the “tolerability, body weight” value in data set [5] and in data set [6] was “well tolerated without weight loss” each time.
For `COCc1cc(C(=O)Nc2cc([C@H]3CC[C@@H](OC(=O)NC(C)C)C3)[nH]n2)n(C)n1` [PF-07104091], in [1] (NCI-H1048 cells, 24 h), the SAC activation entry is “did not activate the SAC”.
Consider `COC(=O)Nc1nc2ccc(C(=O)c3cccs3)cc2[nH]1` [nocodazole], for which the “cells in mitotic arrest” value with NCI-H69 cells was “around 90%”.
